Source: ChEMBL document CHEMBL1201862, “PubChem BioAssay data set” (2004)
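Tested at 5 concentrations; 48 h exposure; 96-well plates; endpoints linearly interpolated, else capped at highest concentration. GI50 marks 50% less growth.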 Active and inactive are the calls of the source. Cut-off read from the data, not from the text of the source: active = GI50 up to about 1.1 µM and inactive = higher.

Columns and labels:
Assay in all cases: DTP human tumour cell line panel, 48 h
[1] = system: 786-0
[2] = system: A549
[3] = system: CCRF-CEM
[4] = system: HCT-116
[5] = system: K562
[6] = system: NCI-H226
[7] = system: NCI/ADR-RES
[8] = system: OVCAR-3
[9] = system: OVCAR-4
[10] = system: OVCAR-8
[11] = system: RPMI-8226
[12] = system: RXF 393
[13] = system: SF-539
[14] = system: SK-MEL-28
[15] = system: SW-620
[16] = system: UACC-257
[17] = system: UO-31
[18] = system: MOLT-4
[19] = system: SK-OV-3

| SMILES | GI50 [1] | GI50 [2] | GI50 [3] | GI50 [4] | GI50 [5] | GI50 [6] | GI50 [7] | GI50 [8] | GI50 [9] | GI50 [10] | GI50 [11] | GI50 [12] | GI50 [13] | GI50 [14] | GI50 [15] | GI50 [16] | GI50 [17] | GI50 [18] | GI50 [19] |
| --- | --- | --- | --- | --- | --- | --- | --- | --- | --- | --- | --- | --- | --- | --- | --- | --- | --- | --- | --- |
| CC(=O)C1=C(C)N(c2ccc(C)cc2)C2(O)C=CC(=O)C3C(=O)N(c4ccccc4)C(=O)C132 (stereo not given) | 30.6 µM (inactive) | 38.3 µM (inactive) | 3.9 µM (inactive) | 6.49 µM (inactive) | 3.42 µM (inactive) | 17.1 µM (inactive) | 54.2 µM (inactive) | 22.3 µM (inactive) | 20.8 µM (inactive) | 23.3 µM (inactive) | 3.85 µM (inactive) | 20.3 µM (inactive) | 24.4 µM (inactive) | 19.5 µM (inactive) | 4.45 µM (inactive) | 17.6 µM (inactive) | 11.2 µM (inactive) | – | – |
| CCOC(=O)NC(=S)NC(C)c1ccccc1 (stereo not given) | > 100 µM (inactive) | > 100 µM (inactive) | > 100 µM (inactive) | > 100 µM (inactive) | > 100 µM (inactive) | > 100 µM (inactive) | > 100 µM (inactive) | > 100 µM (inactive) | > 100 µM (inactive) | > 100 µM (inactive) | 27.2 µM (inactive) | > 100 µM (inactive) | – | > 100 µM (inactive) | > 100 µM (inactive) | > 100 µM (inactive) | 70.6 µM (inactive) | 26.4 µM (inactive) | > 100 µM (inactive) |
| CN(C)/N=N/c1nc2c(c(=O)n(C)c(=O)n2C)n1C | > 100 µM (inactive) | > 100 µM (inactive) | > 100 µM (inactive) | > 100 µM (inactive) | > 100 µM (inactive) | > 100 µM (inactive) | > 100 µM (inactive) | > 100 µM (inactive) | > 100 µM (inactive) | > 100 µM (inactive) | > 100 µM (inactive) | > 100 µM (inactive) | – | > 100 µM (inactive) | > 100 µM (inactive) | > 100 µM (inactive) | > 100 µM (inactive) | > 100 µM (inactive) | > 100 µM (inactive) |
| O=C1CCC[C@@H]2NC[C@@H](c3ccc4c(c3)OCO4)[C@H]12 | > 25 µM (inactive) | > 25 µM (inactive) | > 25 µM (inactive) | > 25 µM (inactive) | > 25 µM (inactive) | > 25 µM (inactive) | > 25 µM (inactive) | – | > 25 µM (inactive) | > 25 µM (inactive) | > 25 µM (inactive) | > 25 µM (inactive) | – | > 25 µM (inactive) | – | > 25 µM (inactive) | > 25 µM (inactive) | > 25 µM (inactive) | > 25 µM (inactive) |
| O=C1OC(c2ccc(Cl)cc2)=N/C1=C\c1ccccc1 | > 100 µM (inactive) | > 100 µM (inactive) | 39.5 µM (inactive) | > 100 µM (inactive) | > 100 µM (inactive) | > 100 µM (inactive) | 78 µM (inactive) | 42.3 µM (inactive) | > 100 µM (inactive) | > 100 µM (inactive) | 46.6 µM (inactive) | > 100 µM (inactive) | > 100 µM (inactive) | > 100 µM (inactive) | > 100 µM (inactive) | > 100 µM (inactive) | > 100 µM (inactive) | – | > 100 µM (inactive) |
| O=C(Cn1c2ccc(Br)cc2c2nc3ccccc3nc21)Nc1ccccc1 | 14.3 µM (inactive) | 17 µM (inactive) | 11.9 µM (inactive) | 14.5 µM (inactive) | 38.8 µM (inactive) | 32.6 µM (inactive) | 20 µM (inactive) | > 100 µM (inactive) | 20.9 µM (inactive) | 15.1 µM (inactive) | 37.7 µM (inactive) | 20.2 µM (inactive) | – | 36.1 µM (inactive) | 24.8 µM (inactive) | 78.2 µM (inactive) | 42.2 µM (inactive) | > 100 µM (inactive) | > 100 µM (inactive) |
| CC(C(N)=O)N(C)C(=O)c1cc2ccccc2[n+](Cc2ccccc2)c1 (stereo not given) | > 100 µM (inactive) | > 100 µM (inactive) | > 100 µM (inactive) | > 100 µM (inactive) | > 100 µM (inactive) | > 100 µM (inactive) | > 100 µM (inactive) | > 100 µM (inactive) | > 100 µM (inactive) | > 100 µM (inactive) | > 100 µM (inactive) | > 100 µM (inactive) | > 100 µM (inactive) | > 100 µM (inactive) | > 100 µM (inactive) | > 100 µM (inactive) | > 100 µM (inactive) | > 100 µM (inactive) | – |
| CN1CCN(C(=S)N2CCN(C)CC2)CC1 | 21.9 µM (inactive) | > 100 µM (inactive) | 0.7 µM (active) | > 100 µM (inactive) | 7.98 µM (inactive) | > 100 µM (inactive) | 25.3 µM (inactive) | – | > 65.2 µM (inactive) | > 100 µM (inactive) | 2.06 µM (inactive) | > 100 µM (inactive) | 10.8 µM (inactive) | > 100 µM (inactive) | > 30.8 µM (inactive) | > 100 µM (inactive) | > 100 µM (inactive) | – | > 30.1 µM (inactive) |
